Assay results taken from paper PMC11711049 (Cancer Science, 2024).

Test system: patients with advanced gastric cancer and cholangiocarcinoma
Test: Safety assessments
Assay type: in vivo, human
[1] = 16 evaluable patients, 140 mg once daily

## CNC(=O)n1ccc2cc(Oc3ccnc(NC(=O)c4ccc(C5CCN(CCO)CC5)cc4)c3)c(OCCOC)cc21 [Tasurgratinib]
140 mg once daily
  SAEs considered related to the study drug: none and No treatment‐related SAEs
  dose reductions attributed to AST increased: 1 n
  dose reductions attributed to PPE syndrome: 2 n
  dose reductions attributed to decreased appetite: 1 n
  dose reductions attributed to paronychia: 2 n
  dose reductions attributed to stomatitis: 1 n
  drug‐related deaths: no drug‐related deaths
  severity of all hyperphosphatemia events: grade 1 or 2
140 mg once daily, N = 16
  ALT increased, TEAEs All grades: 3 (18.8) n (%)
  ALT increased, TEAEs Grade ≥3: 1 (6.3) n (%)
  ALT increased, TRAEs All grades: 2 (12.5) n (%)
  ALT increased, TRAEs Grade ≥3: 0 (0.0) n (%)
  AST increased, TEAEs All grades: 4 (25.0) n (%)
  AST increased, TEAEs Grade ≥3: 2 (12.5) n (%)
  AST increased, TRAEs All grades: 3 (18.8) n (%)
  AST increased, TRAEs Grade ≥3: 1 (6.3) n (%)
  Abdominal distension, TEAEs All grades: 4 (25.0) n (%)
  Abdominal distension, TEAEs Grade ≥3: 1 (6.3) n (%)
  Abdominal distension, TRAEs All grades: 0 (0.0) n (%)
  Abdominal distension, TRAEs Grade ≥3: 0 (0.0) n (%)
  Abdominal pain, TEAEs All grades: 2 (12.5) n (%)
  Abdominal pain, TEAEs Grade ≥3: 0 (0.0) n (%)
  Abdominal pain, TRAEs All grades: 0 (0.0) n (%)
  Abdominal pain, TRAEs Grade ≥3: 0 (0.0) n (%)
  All AEs, TEAEs All grades: 16 (100.0) n (%)
  All AEs, TEAEs Grade ≥3: 11 (68.8) n (%)
  All AEs, TRAEs All grades: 16 (100.0) n (%)
  All AEs, TRAEs Grade ≥3: 2 (12.5) n (%)
  Anemia, TEAEs All grades: 4 (25.0) n (%)
  Anemia, TEAEs Grade ≥3: 2 (12.5) n (%)
  Anemia, TRAEs All grades: 1 (6.3) n (%)
  Anemia, TRAEs Grade ≥3: 0 (0.0) n (%)
  Blood alkaline phosphatase increased, TEAEs All grades: 3 (18.8) n (%)
  Blood alkaline phosphatase increased, TEAEs Grade ≥3: 2 (12.5) n (%)
  Blood alkaline phosphatase increased, TRAEs All grades: 1 (6.3) n (%)
  Blood alkaline phosphatase increased, TRAEs Grade ≥3: 0 (0.0) n (%)
  Blood creatinine increased, TEAEs All grades: 5 (31.3) n (%)
  Blood creatinine increased, TEAEs Grade ≥3: 0 (0.0) n (%)
  Blood creatinine increased, TRAEs All grades: 3 (18.8) n (%)
  Blood creatinine increased, TRAEs Grade ≥3: 0 (0.0) n (%)
  Cancer pain, TEAEs All grades: 2 (12.5) n (%)
  Cancer pain, TEAEs Grade ≥3: 0 (0.0) n (%)
  Cancer pain, TRAEs All grades: 0 (0.0) n (%)
  Cancer pain, TRAEs Grade ≥3: 0 (0.0) n (%)
  Constipation, TEAEs All grades: 3 (18.8) n (%)
  Constipation, TEAEs Grade ≥3: 0 (0.0) n (%)
  Constipation, TRAEs All grades: 1 (6.3) n (%)
  Constipation, TRAEs Grade ≥3: 0 (0.0) n (%)
  Decreased appetite, TEAEs All grades: 7 (43.8) n (%)
  Decreased appetite, TEAEs Grade ≥3: 2 (12.5) n (%)
  Decreased appetite, TRAEs All grades: 2 (12.5) n (%)
  Decreased appetite, TRAEs Grade ≥3: 0 (0.0) n (%)
  Diarrhea, TEAEs All grades: 6 (37.5) n (%)
  Diarrhea, TEAEs Grade ≥3: 1 (6.3) n (%)
  Diarrhea, TRAEs All grades: 4 (25.0) n (%)
  Diarrhea, TRAEs Grade ≥3: 0 (0.0) n (%)
  Dry eye, TEAEs All grades: 2 (12.5) n (%)
  Dry eye, TEAEs Grade ≥3: 0 (0.0) n (%)
  Dry eye, TRAEs All grades: 1 (6.3) n (%)
  Dry eye, TRAEs Grade ≥3: 0 (0.0) n (%)
  Dry mouth, TEAEs All grades: 3 (18.8) n (%)
  Dry mouth, TEAEs Grade ≥3: 0 (0.0) n (%)
  Dry mouth, TRAEs All grades: 3 (18.8) n (%)
  Dry mouth, TRAEs Grade ≥3: 0 (0.0) n (%)
  Dry skin, TEAEs All grades: 3 (18.8) n (%)
  Dry skin, TEAEs Grade ≥3: 0 (0.0) n (%)
  Dry skin, TRAEs All grades: 3 (18.8) n (%)
  Dry skin, TRAEs Grade ≥3: 0 (0.0) n (%)
  Dysgeusia, TEAEs All grades: 6 (37.5) n (%)
  Dysgeusia, TEAEs Grade ≥3: 0 (0.0) n (%)
  Dysgeusia, TRAEs All grades: 5 (31.3) n (%)
  Dysgeusia, TRAEs Grade ≥3: 0 (0.0) n (%)
  Epistaxis, TEAEs All grades: 2 (12.5) n (%)
  Epistaxis, TEAEs Grade ≥3: 0 (0.0) n (%)
  Epistaxis, TRAEs All grades: 1 (6.3) n (%)
  Epistaxis, TRAEs Grade ≥3: 0 (0.0) n (%)
  Headache, TEAEs All grades: 2 (12.5) n (%)
  Headache, TEAEs Grade ≥3: 1 (6.3) n (%)
  Headache, TRAEs All grades: 0 (0.0) n (%)
  Headache, TRAEs Grade ≥3: 0 (0.0) n (%)
  Hyperphosphatemia, TEAEs All grades: 16 (100.0) n (%)
  Hyperphosphatemia, TEAEs Grade ≥3: 0 (0.0) n (%)
  Hyperphosphatemia, TRAEs All grades: 16 (100.0) n (%)
  Hyperphosphatemia, TRAEs Grade ≥3: 0 (0.0) n (%)
  Hypoalbuminemia, TEAEs All grades: 3 (18.8) n (%)
  Hypoalbuminemia, TEAEs Grade ≥3: 1 (6.3) n (%)
  Hypoalbuminemia, TRAEs All grades: 0 (0.0) n (%)
  Hypoalbuminemia, TRAEs Grade ≥3: 0 (0.0) n (%)
  Insomnia, TEAEs All grades: 2 (12.5) n (%)
  Insomnia, TEAEs Grade ≥3: 0 (0.0) n (%)
  Insomnia, TRAEs All grades: 0 (0.0) n (%)
  Insomnia, TRAEs Grade ≥3: 0 (0.0) n (%)
  Lipase increased, TEAEs All grades: 2 (12.5) n (%)
  Lipase increased, TEAEs Grade ≥3: 2 (12.5) n (%)
  Lipase increased, TRAEs All grades: 1 (6.3) n (%)
  Lipase increased, TRAEs Grade ≥3: 1 (6.3) n (%)
  Malaise, TEAEs All grades: 2 (12.5) n (%)
  Malaise, TEAEs Grade ≥3: 0 (0.0) n (%)
  Malaise, TRAEs All grades: 2 (12.5) n (%)
  Malaise, TRAEs Grade ≥3: 0 (0.0) n (%)
  Nail disorder, TEAEs All grades: 2 (12.5) n (%)
  Nail disorder, TEAEs Grade ≥3: 0 (0.0) n (%)
  Nail disorder, TRAEs All grades: 2 (12.5) n (%)
  Nail disorder, TRAEs Grade ≥3: 0 (0.0) n (%)
  Nasopharyngitis, TEAEs All grades: 2 (12.5) n (%)
  Nasopharyngitis, TEAEs Grade ≥3: 0 (0.0) n (%)
  Nasopharyngitis, TRAEs All grades: 0 (0.0) n (%)
  Nasopharyngitis, TRAEs Grade ≥3: 0 (0.0) n (%)
  PPE syndrome, TEAEs All grades: 10 (62.5) n (%)
  PPE syndrome, TEAEs Grade ≥3: 0 (0.0) n (%)
  PPE syndrome, TRAEs All grades: 10 (62.5) n (%)
  PPE syndrome, TRAEs Grade ≥3: 0 (0.0) n (%)
  Paronychia, TEAEs All grades: 9 (56.3) n (%)
  Paronychia, TEAEs Grade ≥3: 0 (0.0) n (%)
  Paronychia, TRAEs All grades: 8 (50.0) n (%)
  Paronychia, TRAEs Grade ≥3: 0 (0.0) n (%)
  Platelet count decreased, TEAEs All grades: 2 (12.5) n (%)
  Platelet count decreased, TEAEs Grade ≥3: 0 (0.0) n (%)
  Platelet count decreased, TRAEs All grades: 1 (6.3) n (%)
  Platelet count decreased, TRAEs Grade ≥3: 0 (0.0) n (%)
  Pruritus, TEAEs All grades: 2 (12.5) n (%)
  Pruritus, TEAEs Grade ≥3: 0 (0.0) n (%)
  Pruritus, TRAEs All grades: 2 (12.5) n (%)
  Pruritus, TRAEs Grade ≥3: 0 (0.0) n (%)
  Pyrexia, TEAEs All grades: 3 (18.8) n (%)
  Pyrexia, TEAEs Grade ≥3: 0 (0.0) n (%)
  Pyrexia, TRAEs All grades: 1 (6.3) n (%)
  Pyrexia, TRAEs Grade ≥3: 0 (0.0) n (%)
  Stomatitis, TEAEs All grades: 6 (37.5) n (%)
  Stomatitis, TEAEs Grade ≥3: 1 (6.3) n (%)
  Stomatitis, TRAEs All grades: 6 (37.5) n (%)
  Stomatitis, TRAEs Grade ≥3: 0 (0.0) n (%)
  Tumor pain, TEAEs All grades: 2 (12.5) n (%)
  Tumor pain, TEAEs Grade ≥3: 1 (6.3) n (%)
  Tumor pain, TRAEs All grades: 0 (0.0) n (%)
  Tumor pain, TRAEs Grade ≥3: 0 (0.0) n (%)
  Tumor‐associated fever, TEAEs All grades: 2 (12.5) n (%)
  Tumor‐associated fever, TEAEs Grade ≥3: 0 (0.0) n (%)
  Tumor‐associated fever, TRAEs All grades: 0 (0.0) n (%)
  Tumor‐associated fever, TRAEs Grade ≥3: 0 (0.0) n (%)
  Vomiting, TEAEs All grades: 2 (12.5) n (%)
  Vomiting, TEAEs Grade ≥3: 1 (6.3) n (%)
  Vomiting, TRAEs All grades: 0 (0.0) n (%)
  Vomiting, TRAEs Grade ≥3: 0 (0.0) n (%)
  Weight decreased, TEAEs All grades: 2 (12.5) n (%)
  Weight decreased, TEAEs Grade ≥3: 0 (0.0) n (%)
  Weight decreased, TRAEs All grades: 0 (0.0) n (%)
  Weight decreased, TRAEs Grade ≥3: 0 (0.0) n (%)
[1]
  any‐grade TEAE: ALT increased: 18.8%
  any‐grade TEAE: AST increased: 25.0%
  any‐grade TEAE: abdominal distension: 25.0%
  any‐grade TEAE: anemia: 25.0%
  any‐grade TEAE: blood alkaline phosphatase increased: 18.8%
  any‐grade TEAE: blood creatinine increased: 31.3%
  any‐grade TEAE: constipation: 18.8%
  any‐grade TEAE: decreased appetite: 43.8%
  any‐grade TEAE: diarrhea: 37.5%
  any‐grade TEAE: dry mouth: 18.8%
  any‐grade TEAE: dry skin: 18.8%
  any‐grade TEAE: dysgeusia: 37.5%
  any‐grade TEAE: hyperphosphatemia: 100%
  any‐grade TEAE: hypoalbuminemia: 18.8%
  any‐grade TEAE: palmar‐plantar erythrodysesthesia (PPE) syndrome: 62.5%
  any‐grade TEAE: paronychia: 56.3%
  any‐grade TEAE: pyrexia: 18.8%
  any‐grade TEAE: stomatitis: 37.5%
16 patients, 140 mg once daily
  any‐grade treatment‐related TEAE: ALT increased: 12.5%
  any‐grade treatment‐related TEAE: AST increased: 18.8%
  any‐grade treatment‐related TEAE: PPE syndrome: 62.5%
  any‐grade treatment‐related TEAE: blood creatinine increased: 18.8%
  any‐grade treatment‐related TEAE: decreased appetite: 12.5%
  any‐grade treatment‐related TEAE: diarrhea: 25.0%
  any‐grade treatment‐related TEAE: dry mouth: 18.8%
  any‐grade treatment‐related TEAE: dry skin: 18.8%
  any‐grade treatment‐related TEAE: dysgeusia: 31.3%
  any‐grade treatment‐related TEAE: hyperphosphatemia: 100%
  any‐grade treatment‐related TEAE: malaise: 12.5%
  any‐grade treatment‐related TEAE: nail disorder: 12.5%
  any‐grade treatment‐related TEAE: paronychia: 50.0%
  any‐grade treatment‐related TEAE: pruritus: 12.5%
  any‐grade treatment‐related TEAE: stomatitis: 37.5%
  grade ≥3 treatment‐related TEAE: AST increased: 1 n
  grade ≥3 treatment‐related TEAE: lipase increased: 1 n
  grade ≥3 treatment‐related TEAE: retinopathy: 1 n
  patients who experienced a TEAE of grade ≥3: 68.8%
Five of 16 patients, 140 mg once daily
  patients with treatment‐emergent SAEs: 31.3%
In five patients, 140 mg once daily
  total treatment‐emergent serious AEs (SAEs) reported: 11
N = 2
  eye disorder: dry eye: 12.5%
Once daily
  recommended dose for subsequent phase II evaluation: 140 mg
One patient (cholecystitis acute and septic shock, not related)
  patients with TEAEs leading to discontinuation of the study drug: 6.3%
Six of 16 patients
  patients with dose reductions due to treatment‐related TEAEs: 37.5%
Thirteen events in seven patients
  patients with eye disorder events: 43.8%
Two of 16 patients, 140 mg once daily
  patients who experienced grade ≥3 treatment‐related TEAEs: 12.5%
